Measured values taken from US4929601A, “Tripeptides useful as immunostimulants as well as in the prevention of metastases” (Ellem Industria Farmaceutica, S.p.A., priority 1987, dated 1990).

Experiments:
Format in all cases: cell-based
[1] = tested on: pure human T lymphocytes, without macrophages; assay: Lymphokine production by pure human T lymphocytes without macrophages (+IL-1): TCGF activity
Text: The supernatants have been collected, filtered (0.2 μm) and assayed for the presence of IL-2 or BCGF activity, by adding them at different concentrations to fresh T lymphocytes or to long term cultured B cells. The proliferating activity of these cells, dependent on the presence of the respective growth factor, has been evaluated through 3H-thymidine incorporation.
The lymphokine production by human T lymphocytes purified through […] on nylon wool column has been evaluated with the same methods as in the previous experiment.
In order to obviate the lack of macrophages, recombinant IL-1 β (Genzyme) has been added at the concentration of 25 Units/ml.

[2] = tested on: PHA-stimulated human T lymphocytes; assay: DNA synthesis in PHA-stimulated human T lymphocytes in vitro (3H-thymidine); settings: for DNA synthesis, 3H-thymidine c.p.m. (mean): control 22642
Protocol: Human T lymphocytes, incubated in vitro for 72 hours in presence of 0.5% PHA and different concentrations of the tripeptides under examination, have been analyzed for DNA synthesis (cell proliferation) by means of 3H-thymidine labelling.

[3] = tested on: spleen cells of normal mice; assay: Induction of Thy 1.2 antigen in spleen cells of normal mice
Text: The capacity of the tripeptide Arg-Gly-Asp to induce in vitro the differentiation of T cell precursors into lymphocytes expressing T cell markers has been tested by evidencing the induction of Thy 1.2 membrane antigen.
Spleen cells of normal mice have been used as source of "null" cells.
Mice were killed by cervical dislocation.
Spleens were aseptically removed and finely minced with forceps in Hank's balanced salt solution (HBSS) (Gibco Ltd, Paisley, Scotland). A suspension of single cells was obtained through filtration on a fine mesh wire sieve. Mononuclear cells (MNC) have been isolated through differential centrifugation on Lymphoprep (Nyegaard, Oslo, Norway) with continuous density gradient for 20 minutes at 450 g.
After 3 washes in HBSS, MNC were suspended at a concentration of 5×10^6 cells/ml in 199 medium (Gibco Ltd) supplemented with 1% BSA (Cohn Fr. V. Sigma, St. Louis), L-glutamine 2 mM and 10 mcg/ml of gentamycin sulfate (Schering, Klworth, N.J., U.S.A.) (TC 199-BSA). The cells have been used when their viability was over 95% at the Trypan Blue exclusion test.
Two hundred μl of the spleen MNC suspension have been mixed with the same volume of the tripeptide opportunely diluted with TC 199-BSA medium. The control cells have only been treated with the medium TC 199-BSA. […] containing 5% CO2, then washed twice with HBSS containing 5% heat-inactivated neonatal calf serum (Gibco) (HBSSS-CS) and finally resuspended in the same medium at a concentration of 10^6 cells/ml.
The expression of Thy 1.2 antigen was analyzed by IF using and anti-Thy 1.2 monoclonal antibody conjugated with fluorescein (Bio-Yeda, supplied by Technogenetics, S. Mauro Torinese, Italy) at the concentration of 2 mcg/10^6 cells. The cells have been incubated with the antibody for 30 minutes at 4° C.
After three washes in HBSS, the cells have been resuspended in the same medium and observed with a Leitz Orthomat microscope equipped with epiillumination.
At least 300 cells have been counted in each evaluation.

With `N=C(N)NCCC[C@H](N)C(=O)NCC(=O)N[C@@H](CC(=O)O)C(=O)O` [ARG--GLY--ASP, L-Arginyl-glycyl-L-aspartic acid] the “TCGF activity Δ %” value ([1]; 1 mcg/ml, 3.125% of supernatant) was “+17%”, the “TCGF ACTIVITY c.p.m.” value ([1]; 1 mcg/ml, 3.125% of supernatant, T + PHA + IL-1 1696) was 1984 c.p.m and the “TCGF activity Δ %” value ([1]; 1 mcg/ml, 6.25% of supernatant) was “+145%”. The “TCGF ACTIVITY c.p.m.” value ([1]; 1 mcg/ml, 6.25% of supernatant, T + PHA + IL-1 2817) was 6893 c.p.m, the “TCGF activity Δ %” value ([1]; 1 mcg/ml, 12.5% of supernatant) was “+259%” and the “TCGF ACTIVITY c.p.m.” value ([1]; 1 mcg/ml, 12.5% of supernatant, T + PHA + IL-1 3663) was 13147 c.p.m. The “TCGF activity Δ %” value ([1]; 1 mcg/ml, 25% of supernatant) was “+209%”, the “TCGF ACTIVITY c.p.m.” value ([1]; 1 mcg/ml, 25% of supernatant, T + PHA + IL-1 4812) was 14862 c.p.m and the “TCGF activity Δ %” value ([1]; 1 mcg/ml, 50% of supernatant) was “+149%”. The “TCGF ACTIVITY c.p.m.” value ([1]; 1 mcg/ml, 50% of supernatant, T + PHA + IL-1 6297) was 15654 c.p.m, the “TCGF activity Δ %” value ([1]; 10 mcg/ml, 3.125% of supernatant) was “+2%” and the “TCGF ACTIVITY c.p.m.” value ([1]; 10 mcg/ml, 3.125% of supernatant, T + PHA + IL-1 1696) was 1736 c.p.m. For the same compound, the “TCGF activity Δ %” value ([1]; 10 mcg/ml, 6.25% of supernatant) was “+125%”, the “TCGF ACTIVITY c.p.m.” value ([1]; 10 mcg/ml, 6.25% of supernatant, T + PHA + IL-1 2817) was 6342 c.p.m and the “TCGF activity Δ %” value ([1]; 10 mcg/ml, 12.5% of supernatant) was “+279%”. For the same compound, the “TCGF ACTIVITY c.p.m.” value ([1]; 10 mcg/ml, 12.5% of supernatant, T + PHA + IL-1 3663) was 13874 c.p.m, the “TCGF activity Δ %” value ([1]; 10 mcg/ml, 25% of supernatant) was “+128%” and the “TCGF ACTIVITY c.p.m.” value ([1]; 10 mcg/ml, 25% of supernatant, T + PHA + IL-1 4812) was 10968 c.p.m. For the same compound, the “TCGF activity Δ %” value ([1]; 10 mcg/ml, 50% of supernatant) was “+113%”, the “TCGF ACTIVITY c.p.m.” value ([1]; 10 mcg/ml, 50% of supernatant, T + PHA + IL-1 6297) was 13427 c.p.m and the “PHA-induced human T lymphocyte proliferation (DNA synthesis)” value ([2]; 72 hours, 0.5% PHA) was “able to increase”. The “DNA synthesis Δ %” value ([2]; peptide 0.0001 mcg/ml) was -3%, the “DNA synthesis, 3H-thymidine c.p.m. (mean)” value ([2]; peptide 0.0001 mcg/ml, 72 hours, 0.5% PHA) was 22002 c.p.m and the “DNA synthesis Δ %” value ([2]; peptide 0.001 mcg/ml) was “+4%”. For the same compound, the “DNA synthesis, 3H-thymidine c.p.m. (mean)” value ([2]; peptide 0.001 mcg/ml, 72 hours, 0.5% PHA) was 23519 c.p.m, the “DNA synthesis Δ %” value ([2]; peptide 0.01 mcg/ml) was “+6%” and the “DNA synthesis, 3H-thymidine c.p.m. (mean)” value ([2]; peptide 0.01 mcg/ml, 72 hours, 0.5% PHA) was 24034 c.p.m. For the same compound, the “DNA synthesis Δ %” value ([2]; peptide 0.1 mcg/ml) was “+17%”, the “DNA synthesis, 3H-thymidine c.p.m. (mean)” value ([2]; peptide 0.1 mcg/ml, 72 hours, 0.5% PHA) was 25814 c.p.m and the “DNA synthesis Δ %” value ([2]; peptide 1 mcg/ml) was “+11%”. For the same compound, the “DNA synthesis, 3H-thymidine c.p.m. (mean)” value ([2]; peptide 1 mcg/ml, 72 hours, 0.5% PHA) was 25163 c.p.m, the “DNA synthesis Δ %” value ([2]; peptide 10 mcg/ml) was “+6%” and the “DNA synthesis, 3H-thymidine c.p.m. (mean)” value ([2]; peptide 10 mcg/ml, 72 hours, 0.5% PHA) was 24111 c.p.m. The “VARIATION of % THY 1.2 + cells” value ([3]; 0.1 μg/ml, 3 hours of incubation) was “+3.3”, the “% THY 1.2 + CELLS” value ([3]; 0.1 μg/ml, 3 hours of incubation, control 22.0) was 25.3% and the “VARIATION of % THY 1.2 + cells” value ([3]; 1 μg/ml, 3 hours of incubation) was “+5.1”. For the same compound, the “% THY 1.2 + CELLS” value ([3]; 1 μg/ml, 3 hours of incubation, control 22.0) was 27.1%, the “VARIATION of % THY 1.2 + cells” value ([3]; 10 μg/ml, 3 hours of incubation) was “+9.4” and the “% THY 1.2 + CELLS” value ([3]; 10 μg/ml, 3 hours of incubation, control 22.0) was 31.4%. The “VARIATION of % THY 1.2 + cells” value ([3]; 10 μg/ml, 18 hours of incubation) was “+9.5”, the “% THY 1.2 + CELLS” value ([3]; 10 μg/ml, 18 hours of incubation, control 17.0) was 26.5% and the “VARIATION of % THY 1.2 + cells” value ([3]; 100 μg/ml, 3 hours of incubation) was “+7.4”. The “% THY 1.2 + CELLS” value ([3]; 100 μg/ml, 3 hours of incubation, control 22.0) was 29.4%, the “VARIATION of % THY 1.2 + cells” value ([3]; 100 μg/ml, 18 hours of incubation) was “+4.7” and the “% THY 1.2 + CELLS” value ([3]; 100 μg/ml, 18 hours of incubation, control 17.0) was 21.7%. The “VARIATION of % THY 1.2 + cells” value ([3]; 200 μg/ml, 3 hours of incubation) was “+5.9”, the “% THY 1.2 + CELLS” value ([3]; 200 μg/ml, 3 hours of incubation, control 22.0) was 27.9% and the “optimum concentration for Thy 1.2 induction” value ([3]; in vitro) was 10 µg/mL.
